Results on 3 compounds are retold here after patent publication US8153142B2, “Skin treatment composition” (Shiseido Co., Ltd., priority 2001, dated 2012).

For data set [1], the system named is human skin (forearms of 10 panelists). Description: Conductance measuring test. In kind it is in vivo. The conditions noted are these: for Conductance 30 min-after / Conductance 60 min-after / Conductance 120 min-after: 10% aqueous solution; for Conductance 30 min-after: 30 minutes after application; for Conductance 60 min-after: 60 minutes after application; for Conductance 120 min-after: 120 minutes after application. The method, then: (i) Conductance Measuring Test
Using forearms of 10 panelists, the skin conductance was measured before application and for 30 minutes, 60 minutes and 120 minutes after application, and the moisturizing effect was evaluated from a change rate thereof. The change rate of the skin conductance is calculated by the following equation (II): Conductance change rate=[…].
The change rate can be used for study of the influences on a water-absorbing property and a moisture retaining ability of a keratin layer. When this change rate is small, there is increase in the moisture in a keratin layer, thus, it can be evaluated that the moisturizing effect is high.
The evaluation criteria of conductance measuring test is as follows: • {circumflex over (◯)}: The average of conductance change rate of 10 panelists is not less than 0 and less than 0.1 • ◯: The average of conductance change rate of 10 panelists is not less than 0.1 and less than 0.2 • Δ: The average of conductance change rate of 10 panelists is not less than 0.2 and less than 0.5 • X: The average of conductance change rate of 10 panelists is not less than 0.5

Data set [2] has as its system human skin (medial parts of brachiums). Description: Evaluation No.(7): Skin Stimulation Test B (smart feeling). The data set is classed as in vivo. Here is the method: (viii) Evaluation No.(7): Skin Stimulation Test B
A smart feeling when a sample applied on medial parts of brachiums of 10 panelists was graded based on the following criteria and, thereafter, an average was calculated: • 0: No smart feeling is perceived. • 1: Slight smart feeling or redness is perceived. • 2: Smart feeling or redness is perceived. • 3: Smart feeling and redness are perceived.
The evaluation criteria of skin stimulation test B is as follows: • {circumflex over (◯)}: The average of 10 panelists is not less than 0 and less than 0.1 • ◯: The average of 10 panelists is not less than 0.1 and less than 0.15 • Δ: The average of 10 panelists is not less than 0.15 and less than 0.2 • X: The average of 10 panelists is not less than 0.2

For data set [3], the system named is human skin. In words: Evaluation No.(8): Refreshing Effect Durability. The conditions noted are these: for Refreshing feeling (8): basic composition B. In kind it is in vivo. Here is the method: (ix) Evaluation No.(8): Refreshing Effect Durability A presence or absence of refreshing feeling for 120 minutes after use was evaluated by 10 special panelists. The evaluation criteria is as follows: • {circumflex over (◯)}: Not less than 8 special panelists recognized that there was refreshing feeling durability. • ◯: Not less than 6 and less than 8 special panelists recognized that there was refreshing feeling durability. • Δ: Not less than 3 and less than 6 special panelists recognized that there was refreshing feeling durability. • X: Less than 3 special panelists recognized that there was refreshing feeling durability.

Data set [4] has as its system human skin. In words: Evaluation No.(3): Moisturizing Effect Feeling. In kind it is in vivo. The note with it: compound 5% by weight in basic composition A. Here is the method:
(iv) Evaluation No.(3): Moisturizing Effect Feeling Practical test on the presence or absence of the moisturizing effect feeling for 120 minutes after use was performed by using 10 special panelists. The evaluation criteria is as follows: • {circumflex over (◯)}: Not less than 8 special panelists recognized that there was the moisturizing effect feeling. • ◯: Not less than 6 and less than 8 special panelists recognized that there was the moisturizing effect feeling. • Δ: Not less than 3 and less than 6 special panelists recognized that there was the moisturizing effect feeling. • X: Less than 3 special panelists recognized that there was the moisturizing effect feeling.

In data set [5] the test system is rough skin on cheek. In words: Evaluation No.(4): Rough Skin Improving Effect Test. In kind it is in vivo, human. The conditions noted are these: compound 5% by weight in basic composition A. Here is the method:
(v) Evaluation No.(4): Rough Skin Improving Effect Test A rough skin improving effect test was performed by using 10 panelists having rough skin on cheek. According to a test schedule, different skin lotions were applied on left and right cheeks for 1 week, and the effect was determined on the next day after the last day of the test period. The evaluation criteria is as follows: • {circumflex over (◯)}: Not less than 8 panelists recognized that the rough skin was improved. • ◯: Not less than 6 and less than 8 panelists recognized that the rough skin was improved. • Δ: Not less than 3 and less than 6 panelists recognized that the rough skin was improved. • X: Less than 3 panelists recognized that the rough skin was improved.

In data set [6] the test system is human skin (medial parts of brachiums). In words: Evaluation No.(5): Skin Stimulation Test A (occluding patch). In kind it is in vivo. The conditions noted are these: compound 5% by weight in basic composition A. Here is the method:
(iv) Evaluation No.(5): Skin Stimulation Test A
Occluding patch was performed on medial parts of brachiums of 10 panelists for 24 hours and, thereafter, an average was calculated based on the following criteria: • 0: No abnormality is perceived. • 1: Slight redness is perceived. • 2: Redness is perceived. • 3: Redness and papula are perceived.
The evaluation criteria of skin stimulation test A is as follows: • {circumflex over (◯)}: The average of 10 panelists is not less than 0 and less than 0.1 • ◯: The average of 10 panelists is not less than 0.1 and less than 0.15 • Δ: The average of 10 panelists is not less than 0.15 and less than 0.2 • X: The average of 10 panelists is not less than 0.2

With `CC(O)CCO` (stereo not drawn) [1,3-Butylene glycol], in data set [1], the “Conductance 30 min-after” value is “Δ (The average of conductance change rate of 10 panelists is not less than 0.2 and less than 0.5)”; the “Conductance 60 min-after” value was “Δ (The average of conductance change rate of 10 panelists is not less than 0.2 and less than 0.5)”; the “Conductance 120 min-after” value was “Δ (The average of conductance change rate of 10 panelists is not less than 0.2 and less than 0.5)”.
`OCC(O)CO` [Glycerin]: in data set [1], the “Conductance 30 min-after” value is “⊚ (The average of conductance change rate of 10 panelists is not less than 0 and less than 0.1)”; the “Conductance 60 min-after” value was “◯ (The average of conductance change rate of 10 panelists is not less than 0.1 and less than 0.2)”; the “Conductance 120 min-after” value is “◯ (The average of conductance change rate of 10 panelists is not less than 0.1 and less than 0.2)”. Further, the “Evaluation in conductance measuring (120 min after)” value in data set [1] (Table 7, 5% alone in ion-exchange water 95%) was “Δ (The average of conductance change rate of 10 panelists is not less than 0.2 and less than 0.5)”. Besides, the “Stimulation B (7)” value in data set [2] (Table 11, tested compound 5.0 wt % in basic composition B (L-menthol 0.1)) is “Δ (The average of 10 panelists is not less than 0.15 and less than 0.2)”. Further, the “Refreshing feeling durability (8)” value in data set [3] (Table 11, tested compound 5.0 wt % in basic composition B (L-menthol 0.1), 120 minutes after use) is on record as “X (Less than 3 special panelists recognized that there was refreshing feeling durability.)”.
For “Polyoxyethylene (10) polyoxypropylene (10) dimethyl ether [Compound 2]”, in data set [4] (Table 2, 120 minutes after use), the “Moisturizing Evol. No. (3)” value is reported as “⊚ (Not less than 8 special panelists recognized that there was the moisturizing effect feeling.)”. The “Evaluation (3) moisturizing effect feeling” value in data set [4] (Table 4) was “⊚ (Not less than 8 special panelists recognized that there was the moisturizing effect feeling.)”. Besides, the “Rough skin Evol. No. (4)” value in data set [5] (Table 2, applied 1 week) is “⊚ (Not less than 8 panelists recognized that the rough skin was improved.)”. The “Evaluation (4) rough skin improving effect” value in data set [5] (Table 4) was “⊚ (Not less than 8 panelists recognized that the rough skin was improved.)”. Moreover, the “Stimulation A Evol. No. (5)” value in data set [6] (Table 2, occluding patch 24 hours) is “⊚ (The average of 10 panelists is not less than 0 and less than 0.1)”. Besides, in data set [6] (Table 4), the “Evaluation (5) skin stimulation A” value is “⊚ (The average of 10 panelists is not less than 0 and less than 0.1)”. Besides, the “Stimulation B (7)” value in data set [2] (Table 12, basic composition B, tested compound 5.0 wt %) is “⊚ (The average of 10 panelists is not less than 0 and less than 0.1)”; in data set [2] (Table 13, Y/X study, basic composition B), “⊚ (The average of 10 panelists is not less than 0 and less than 0.1)”; in data set [2] (Table 14, basic composition B, tested compound 5.0 wt %) it was “⊚ (The average of 10 panelists is not less than 0 and less than 0.1)”. Also, the “Refreshing feeling (8)” value in data set [3] (Table 12, tested compound 5.0 wt %) is on record as “⊚ (Not less than 8 special panelists recognized that there was refreshing feeling durability.)”; in data set [3] (Table 13, Y/X study), “⊚ (Not less than 8 special panelists recognized that there was refreshing feeling durability.)”; in data set [3] (Table 14, tested compound 5.0 wt %) it was “⊚ (Not less than 8 special panelists recognized that there was refreshing feeling durability.)”.
